This note sets out measurements from PubChem BioAssay (NCI).

What all share (assay): NCI tumour cell line growth inhibition, 48 h
In experiment [1] the test system is NCI-H23 lung.
For experiment [2], the system named is SK-MEL-28 melanoma.
The test system of experiment [3] is A549 NSCLC.
Experiment [4] has as its system HCT-116 colon.
In experiment [5] the test system is UO-31 renal.
Experiment [6] deals with LOX IMVI melanoma.
For experiment [7], the system named is RXF 393 renal.
Experiment [8] concerns HT29 colon.
In experiment [9] the test system is MDA-MB-435.
For experiment [10], the system named is SW-620 colon.

Where “and” joins values, the source holds several entries; their conditions need not be identical. Identical values can stand only once.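 Each compound was tested at five concentrations against cells in 96-well plates for 48 hours. The concentration for 50% growth inhibition is given as GI50. At the TGI there is no net growth.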

`CCOC(=O)C1=C(C)NC2SC(=O)/C(=C\c3ccccc3Cl)N2C1c1ccccc1` (stereo not drawn): the GI50 in experiment [1], in [2], in [3], in experiment [4], in [5] and in experiment [6] was greater than 100 µM throughout. Besides, the GI50 in experiment [7], in experiment [8], in experiment [9] and in experiment [10] was greater than 100 µM throughout. Also, the TGI in experiment [1], in [2], in experiment [3], in experiment [4], in [5] and in [6] was greater than 100 µM throughout. The TGI in experiment [7], in [8], in experiment [9] and in experiment [10] was greater than 100 µM throughout.

As to `CCCCN(CCCC)c1ccc(C(=N)c2ccc(N(C)C)cc2)cc1`, the GI50 in [1] was 0.278 µM; in experiment [2], 1.31 µM; in experiment [3], 0.7 µM; in [4], 0.307 µM; in [5], 0.0919 µM; in experiment [6] it was 0.536 µM. Besides, the GI50 in [7] was 1.25 µM; in experiment [8], 0.292 µM; in experiment [9] it was 0.348 µM; in experiment [10], 0.438 µM. The TGI in [1] came to 0.981 µM; in [2] it was 2.6 µM; in [3], 1.97 µM; in experiment [4], 1.22 µM; in experiment [5], 1.28 µM; in [6], 2.02 µM. Also, the TGI in experiment [7] amounted to 2.61 µM; in experiment [8], 1.08 µM; in experiment [9], 1.33 µM; in experiment [10] it was 1.78 µM.

`CN(CCC#N)c1ccc(/C=C(\C#N)c2cccc(C(F)(F)F)c2)cc1`: the GI50 in experiment [1] is 3.86 µM; in experiment [2], 6.4 µM; in experiment [4] it was 3.21 µM; in [5] it was 2.27 µM; in experiment [6], 3.75 µM; in experiment [7] it was 3.75 µM. Moreover, the GI50 was 2.58 µM in experiment [8], 2.07 µM in [9] and 3.17 µM in experiment [10]. Moreover, the TGI in experiment [1], in experiment [2], in experiment [4], in experiment [5], in experiment [6] and in experiment [7] was greater than 100 µM throughout. The results for the TGI in experiment [8], in experiment [9] and in experiment [10] were 11.3 µM, 6 µM and greater than 100 µM, respectively.

With `COC1C(O)C(C)OC(OC2C(Oc3cccc4c(O)c5c(=O)oc6ccc(C)c7c(=O)oc(c34)c5c67)OC(C)C3O[C@H](c4ccccc4)OC32)C1O` (stereo partly drawn), the GI50 is 0.32 µM and 0.2 µM in experiment [1]; 0.0528 µM and 0.0292 µM in experiment [4]; 0.199 µM and 0.048 µM in experiment [6]; 0.309 µM and 0.436 µM in [9]. The TGI in experiment [1] is 4.75 µM; in experiment [2] it was 3.92 µM; in experiment [3] it was 2.53 µM; in experiment [4], 3.64 µM; in experiment [5], 2.43 µM; in [6] it was 1.72 µM. The TGI in experiment [7] worked out at 5.91 µM; in experiment [8], 10.2 µM; in experiment [9] it was 7.22 µM; in experiment [10] it was 14.3 µM.

Turning to `C=C1C(=O)O[C@H]2[C@H]1CC/C(Cn1cc(CNCCc3c[nH]c4ccc(Cl)cc34)nn1)=C\CC[C@@]1(C)O[C@@H]21`, the GI50 in experiment [1] was 17 µM; in experiment [2], 10.7 µM; in experiment [3], 34.9 µM; in experiment [4], 3.31 µM; in experiment [5] it was 6.23 µM; in experiment [6], 3.56 µM. Moreover, the GI50 in experiment [7] was 2.66 µM; in experiment [8], 3.32 µM; in experiment [9], 6.09 µM; in [10], 1.82 µM. Also, the TGI is 45.5 µM in [1]; 25.2 µM in experiment [2]; greater than 100 µM in experiment [3]; 10 µM in experiment [4]; 19.4 µM in experiment [5]; 16 µM in experiment [6]. The TGI in [7] is 9.69 µM; in experiment [8], 11.2 µM; in [9], 21 µM; in experiment [10], 3.88 µM.

`CCN(CC)C(=O)CC1=C(C)/C(=C/c2[nH]c(-c3ccc[nH]3)cc2OC)N=C1C`: the GI50 is 0.794 µM in experiment [1]; 0.639 µM in [3]; 0.286 µM in experiment [4]; 0.554 µM in experiment [5]; 0.199 µM in experiment [6]; 1.1 µM in experiment [7]. Moreover, the values for the GI50 in [8], in experiment [9] and in experiment [10] were 0.287 µM, 0.412 µM and 0.334 µM, respectively. In addition, the TGI is 71.9 µM in experiment [1]; greater than 100 µM in [3]; 10.3 µM in [4]; 2.5 µM in [5]; 0.513 µM in experiment [6]; 22.9 µM in [7]. The figures for the TGI in [8], in experiment [9] and in experiment [10] were 48.3 µM, 14.6 µM and 13.4 µM, respectively.

With `COc1cc([N+](=O)[O-])c(S(=O)(=O)O)cc1NS(=O)(=O)c1ccc(C)cc1`, the TGI in experiment [1], in experiment [2], in [3], in experiment [4], in [5] and in experiment [6] was greater than 100 µM each time. Also, the TGI in experiment [8], in experiment [9] and in [10] was greater than 100 µM in each case.

Turning to `C/C=C(\C)c1cc(=O)c2c(C)cc3c(c2o1)C(=O)c1c(O)c(C2CC(C)(N(C)C)C(O)C(C)O2)cc(C2CC(N(C)C)C(O)C(C)O2)c1C3=O` (stereo not drawn), the TGI was 1.03 µM and 9.29 µM in experiment [1]; 1.66 µM in [3]; 1.3 µM and 10.2 µM in [4]; 1.72 µM and 6.46 µM in experiment [8]; 0.866 µM in experiment [9]; 1.96 µM and 16.7 µM in experiment [10]. For the same molecule, the GI50 was 0.153 µM in experiment [3]; 0.531 µM and 3.98 µM in experiment [5]; 0.156 µM and 1.39 µM in experiment [7].
